Measured values as given in patent US4008323A, “Method of reducing cholesterol using certain aromatic keto acids” (Pierre Fabre S.A., priority 1974, dated 1977).
Like-named read-outs stand apart in the source and are kept apart here.

How the values were obtained:
[1] = Acute toxicity in mice, oral LD50 (method of Miller & Tainter); conditions: mouse, in vivo, mortality determined 48 hours after administration
Experimental: The chemical compounds previously described were submitted to toxicity tests. It was determined in mice by oral administration and was calculated in accordance with the method of MILLER & TAINTER. It is generally low and greater than 1000 mg/kg.

carrageenin edema = test: Carrageenin edema test in rats (antiinflammatory); type: in vivo; conditions: for % var. / action (variation of paw volume increase vs controls) / change in vivo at 75 mg/kg: 75 mg/kg oral; for change in vivo at 75 mg/kg / change in vivo at 300 mg/kg / change in vivo at 200 mg/kg: Rattus norvegicus; for change in vivo at 300 mg/kg: 300 mg/kg oral; for change in vivo at 200 mg/kg: 200 mg/kg oral
Experimental: The antiinflammatory properties were shown by the carrageenin edema test in rats, the products having been administered orally 1 hour before the intrapodal injection of 0.05 ml of a 2% suspension of carrageenin; the volume of the rat's paw was measured by plethysmoscopy 3, 4 and 6 hours afterwards.
The experiment concerned for each lot […]; one lot of animals receiving only the vehicle (2 ml/100 g of Tween + water) which served for the administration of the products, constituted the control lot. The following table sets forth the results obtained: […]

Solubility properties = type: physicochemical; conditions: for Solubility in water: in words; for Solubility in ethyl alcohol: ethyl alcohol / ethanol / alcohol; for Solubility in alcohol of 95° GL: alcohol / ethanol of 95° GL
[2] = system: writhings induced by acetic acid; test: Writhing test, acetic acid (analgetic); type: in vivo, male mouse; conditions: 200 mg/kg by mouth, t + 60 to t + 70 min
Experimental: The administration of the compounds is effected by mouth at the time t. […] The determination of the writhings is effected from t + 60 min. to t + 70 min. The vehicle used for the administration of the products is a 5% solution of Tween 80 in 0.9% NaCl which will serve as control.

[3] = system: writhings induced by phenylbenzoquinone; test: Writhing test, phenylbenzoquinone (analgetic); type: in vivo, mice; conditions: 200 mg/kg oral, t + 35 to t + 40 min
Experimental: The analgetic properties of certain compounds were shown in mice by the "writhing test" method, that is to say with reference to the writhings induced by phenylbenzoquinone. The administration of the product is effected orally at time t; it is followed by the intraperitoneal injection of 0.2% phenylbenzoquinone at t + 30 min. The determination of the writhings is effected from t + 35 min. to t + 40 min. One lot of animals receiving only the vehicle (5% Tween 80 in 0.9% NaCl) serves as control.

[4] = 3 hrs, read-out: % increase in volume of the paw, mean (m)
[5] = 4 hrs, read-out: % increase in volume of the paw, mean (m)
[6] = 6 hrs, read-out: % increase in volume of the paw, mean (m)
[7] = read-out: % mean variation of the volume of the paw at 3, 4 and 6 hrs
[8] = + 3 hrs, read-out: % increase in volume of the paw, mean (m)
[9] = + 4 hrs, read-out: % increase in volume of the paw, mean (m)
[10] = + 6 hrs, read-out: % increase in volume of the paw, mean (m)
[11] = + 6 hrs, read-out: Action (variation of paw volume increase vs controls)
[12] = sodium salt, water, read-out: Solubility in form of sodium salt
[13] = + 3 hrs, read-out: Action (variation of paw volume increase vs controls)
[14] = + 4 hrs, read-out: Action (variation of paw volume increase vs controls)

Compound: C=C(CC(=O)c1ccc(-c2ccccc2Cl)cc1)C(=O)OC [F 1440, 2-methylene 4-oxo 4-(4'-o-chlorophenylphenyl) methyl butyrate]
- LD50 at 48 h [1]: > 1000 mg/kg
- % var. / action (variation of paw volume increase vs controls) (carrageenin edema; 3 hrs): -22%
- % var. / action (variation of paw volume increase vs controls) (carrageenin edema; 4 hrs): -15%
- % var. / action (variation of paw volume increase vs controls) (carrageenin edema; 6 hrs): -9%
- change in vivo at 75 mg/kg (carrageenin edema; [4]): 47%
- change in vivo at 75 mg/kg (carrageenin edema; [5]): 50.5%
- change in vivo at 75 mg/kg (carrageenin edema; [6]): 51%
- change in vivo at 75 mg/kg (carrageenin edema; [7]): -15%
- Solubility in N-methyl pyrrolidone (Solubility properties): 60%
- Solubility in NN-dimethyl acetamide (Solubility properties): 60%
- Solubility in water (Solubility properties; water): insoluble

Compound: C=C(CC(=O)c1ccc(-c2ccc(Br)cc2)cc1)C(=O)O [Example 5, 2-methylene 4-oxo 4-(phenyl-4'-parabromophenyl) butyric acid]
- Solubility in N-methyl pyrrolidone (Solubility properties): 25%
- Solubility in ethyl alcohol (Solubility properties): 1%
- Solubility in water (Solubility properties; water): insoluble

Compound: C=C(CC(=O)c1ccccc1)C(=O)O [F 1350, 2-methylene 4-oxo 4-phenyl butyric acid]
- % Decrease (of writhings) [2]: 42,3%
- Mean No. of Writhings [2]: 25,7
- change in vivo at 300 mg/kg (carrageenin edema; [8]): 34.3%
- change in vivo at 300 mg/kg (carrageenin edema; [9]): 39.7%
- change in vivo at 300 mg/kg (carrageenin edema; [10]): 46.1%
- change in vivo at 300 mg/kg (carrageenin edema; [11]): 0%
- change in vivo at 300 mg/kg (carrageenin edema; [7]): -17%
- Solubility in acetone (Solubility properties): 6%
- Solubility in NN-dimethyl acetamide (Solubility properties): 10%
- Solubility in dimethyl sulfoxide (Solubility properties; dimethyl sulfoxide): 25%
- Solubility in ethyl alcohol (Solubility properties): 3%
- solubility (Solubility properties; [12]): 10000 µg/mL
- Solubility in water (Solubility properties; water): insoluble

Compound: CC(=CC(=O)c1ccccc1)C(=O)N1CCOCC1 [F 1443, N-(4-phenyl 4-oxo 2-methyl 2-butenoyl)morpholine]
- Solubility in N-methyl pyrrolidone (Solubility properties): 5%
- Solubility in alcohol of 95° GL (Solubility properties): 1.5%
- Solubility in NN-dimethyl acetamide (Solubility properties): 5%
- Solubility in water (Solubility properties; water): insoluble

Compound: C=C(CC(=O)c1ccc(Oc2ccccc2)cc1)C(=O)O [F 1380]
- change in vivo at 200 mg/kg (carrageenin edema; [8]): 50.3%
- change in vivo at 200 mg/kg (carrageenin edema; [13]): -18%
- change in vivo at 200 mg/kg (carrageenin edema; [9]): 52.8%
- change in vivo at 200 mg/kg (carrageenin edema; [14]): -12%
- change in vivo at 200 mg/kg (carrageenin edema; [10]): 55.6%
- change in vivo at 200 mg/kg (carrageenin edema; [11]): -3%
- change in vivo at 200 mg/kg (carrageenin edema; [7]): -11%

Compound: CC(=CC(=O)c1ccccc1)C(=O)O [F 1351, 2-methyl 4-oxo 4-phenyl 2-butenoic acid]
- % Decrease (of writhings) [2]: 48,2%
- Mean No. of Writhings [2]: 28,0
- change in vivo at 300 mg/kg (carrageenin edema; [8]): 29.7%
- change in vivo at 300 mg/kg (carrageenin edema; [13]): -41%
- change in vivo at 300 mg/kg (carrageenin edema; [9]): 33.8%
- change in vivo at 300 mg/kg (carrageenin edema; [14]): -32%
- change in vivo at 300 mg/kg (carrageenin edema; [10]): 40.6%
- change in vivo at 300 mg/kg (carrageenin edema; [11]): -12%
- Solubility in ethyl alcohol (Solubility properties): 5%
- Solubility in propylene glycol (Solubility properties): 3%
- solubility (Solubility properties; [12]): 10000 µg/mL

Compound: C=C(CC(=O)c1ccc2c(c1)CCCC2)C(=O)O [F 1495, 2-methylene 4-oxo 4-(1'-2'-3'-4'-tetrahydronaphthalene) butyric acid]
- Solubility in N-methyl pyrrolidone (Solubility properties): 50%
- Solubility in alcohol of 95° GL (Solubility properties): 8%
- Solubility in NN-dimethyl acetamide (Solubility properties): 50%
- Solubility in water (Solubility properties; water): insoluble

Compound: C=C(CC(=O)c1ccc(-c2ccccc2Cl)cc1)C(=O)O [F 1496, 2-methylene 4-oxo 4-(4'-orthochlorophenylphenyl) arginine butyrate]
- Solubility in water (Solubility properties; water): soluble

Compound: C=C(CC(=O)c1ccc(C2CCCCC2)cc1)C(=O)O [F 1353, 2-methylene 4-oxo 4-(paracyclohexylphenyl) butyric acid]
- Solubility in NN-dimethyl acetamide (Solubility properties): 20%
- Solubility in ethyl alcohol (Solubility properties): 3%
- Solubility in propylene glycol (Solubility properties): 1%
- solubility (Solubility properties; water with sodium bicarbonate, water + sodium bicarbonate, read-out: Solubility in water by addition of sodium bicarbonate): 10000 µg/mL
- Solubility in water (Solubility properties; water): insoluble

Compound: C=C(CC(=O)c1cccc2ccccc12)C(=O)O [F 1494, 2-methylene 4-oxo 4-naphthalene butanoic acid]
- Solubility in N-methyl pyrrolidone (Solubility properties): 50%
- Solubility in NN-dimethyl acetamide (Solubility properties): 50%
- Solubility in ethyl alcohol (Solubility properties): 3%
- Solubility in water (Solubility properties; water): insoluble

Compound: CC(=CC(=O)c1ccccc1)C(=O)Nc1cccc(C(F)(F)F)c1 [F 1442, 2-methyl 4-oxo 4-phenyl N(m-trifluoromethylphenyl) 2-butenamide]
- LD50 at 48 h [1]: > 1000 mg/kg
- % var. / action (variation of paw volume increase vs controls) (carrageenin edema; 3 hrs): -16%
- % var. / action (variation of paw volume increase vs controls) (carrageenin edema; 4 hrs): -14%
- % var. / action (variation of paw volume increase vs controls) (carrageenin edema; 6 hrs): -11%
- change in vivo at 75 mg/kg (carrageenin edema; [4]): 50%
- change in vivo at 75 mg/kg (carrageenin edema; [5]): 51%
- change in vivo at 75 mg/kg (carrageenin edema; [6]): 49%
- change in vivo at 75 mg/kg (carrageenin edema; [7]): -13%
- Solubility in N-methyl pyrrolidone (Solubility properties): 40%
- Solubility in alcohol of 95° GL (Solubility properties): 30%
- Solubility in NN-dimethyl acetamide (Solubility properties): 40%
- Solubility in water (Solubility properties; water): insoluble

Compound: C=C(CC(=O)c1ccc(Oc2ccccc2)cc1)C(=O)O [Example 4, 2-methylene 4-oxo 4-(paraphenoxyphenyl) butyric acid]
- Solubility in NN dimethyl formamide (Solubility properties; NN dimethyl formamide): 50%
- Solubility in acetone (Solubility properties): 10%
- Solubility in chloroform (Solubility properties; chloroform): 5%
- Solubility in ethyl alcohol (Solubility properties): 3%
- Solubility in propylene glycol (Solubility properties): 1%
- solubility (Solubility properties; [12]): 100000 µg/mL
- Solubility in water (Solubility properties; water): insoluble

Compound: CC(=O)Oc1ccccc1C(=O)O [acetylsalicyclic acid, reference compound]
- % Decrease (of writhings) [2]: 36,6%
- Mean No. of Writhings [2]: 24,7

Compound: C=C(CC(=O)c1ccc(Cl)cc1)C(=O)O [F 1352, 2-methylene 4-oxo 4-(parachlorophenyl) butyric acid]
- % Decrease (of writhings) [2]: 40,3%
- Mean No. of Writhings [2]: 26,6
- change in vivo at 300 mg/kg (carrageenin edema; [8]): 35.8%
- change in vivo at 300 mg/kg (carrageenin edema; [13]): -28%
- change in vivo at 300 mg/kg (carrageenin edema; [9]): 37.9%
- change in vivo at 300 mg/kg (carrageenin edema; [14]): -24%
- change in vivo at 300 mg/kg (carrageenin edema; [10]): 37.3%
- change in vivo at 300 mg/kg (carrageenin edema; [11]): -19%
- change in vivo at 300 mg/kg (carrageenin edema; [7]): -23.6%
- Solubility in N-methyl pyrrolidone (Solubility properties): 25%
- Solubility in ethyl alcohol (Solubility properties): 3%
- solubility (Solubility properties; [12]): 10000 µg/mL
- Solubility in water (Solubility properties; water): insoluble

Compound: CC(=CC(=O)c1ccc(-c2ccccc2Cl)cc1)C(=O)Nc1cccc(C(F)(F)F)c1 [F 1441]
- Solubility in ethyl alcohol (Solubility properties): 6%
- Solubility in water (Solubility properties; water): insoluble

Compound: C=C(CC(=O)c1ccc(OC)c(-c2ccccc2)c1)C(=O)O [F 1497, 2-methylene 4-oxo 4-(3' phenyl, 4'-methoxyphenyl) butyric acid]
- Solubility in alcohol of 95° GL (Solubility properties): 6%
- Solubility in NN-dimethyl acetamide (Solubility properties): 30%
- Solubility in water (Solubility properties; water): insoluble

Compound: C=C(CC(=O)c1ccc(-c2ccc(Cl)cc2)cc1)C(=O)O [F 1449, 2-methylene 4-oxo 4-(4' p-chlorophenylphenyl) butyric acid]
- % Decrease (of writhings) [3]: 17%
- Mean No. of Writhings [3]: 27,4
- % var. / action (variation of paw volume increase vs controls) (carrageenin edema; 3 hrs): -29%
- % var. / action (variation of paw volume increase vs controls) (carrageenin edema; 4 hrs): -24%
- % var. / action (variation of paw volume increase vs controls) (carrageenin edema; 6 hrs): -20%
- change in vivo at 75 mg/kg (carrageenin edema; [4]): 42%
- change in vivo at 75 mg/kg (carrageenin edema; [5]): 45%
- change in vivo at 75 mg/kg (carrageenin edema; [6]): 44.5%
- change in vivo at 75 mg/kg (carrageenin edema; [7]): -24%
- Solubility in N-methyl pyrrolidone (Solubility properties): 30%
- Solubility in absolute alcohol (Solubility properties; absolute alcohol): 1%
- Solubility in NN-dimethyl acetamide (Solubility properties): 30%
- Solubility in water (Solubility properties; water): insoluble

Compound: CC(=CC(=O)c1ccc(-c2ccccc2)cc1)C(=O)O [F 1448, 2-methyl 4-oxo 4-(4'-phenylphenyl) 2-butenoic acid]
- Solubility in N-methyl pyrrolidone (Solubility properties): 20%
- Solubility in NN-dimethyl acetamide (Solubility properties): 25%
- Solubility in ethyl alcohol (Solubility properties): 1%
- Solubility in water (Solubility properties; water): insoluble

Compound: C=C(CC(=O)c1ccc(-c2ccc(Br)cc2)cc1)C(=O)O [F 1378]
- change in vivo at 300 mg/kg (carrageenin edema; [8]): 45.4%
- change in vivo at 300 mg/kg (carrageenin edema; [13]): -26%
- change in vivo at 300 mg/kg (carrageenin edema; [9]): 47.9%
- change in vivo at 300 mg/kg (carrageenin edema; [14]): -21%
- change in vivo at 300 mg/kg (carrageenin edema; [10]): 52.4%
- change in vivo at 300 mg/kg (carrageenin edema; [11]): -8%
- change in vivo at 300 mg/kg (carrageenin edema; [7]): -18.3%
